Measurements reported in patent US20080125432A1 (Devgen NV, priority 2004, published 2008).
Like-named read-outs stand apart in the source and are kept apart here.

What was measured:
[1] = molecular target: T1, human Kv4.3/KChIP2.2 potassium channel (Homo sapiens, UniProt Q9UK17); experiment: Whole cell patch clamp, CHO-K1 cells stably expressing human Kv4.3/KChIP2.2; assay type: cell-based; conditions: CHO-K1
T1 construct: expressed in transfected cells
T1 sequence (Q9UK17 1-655): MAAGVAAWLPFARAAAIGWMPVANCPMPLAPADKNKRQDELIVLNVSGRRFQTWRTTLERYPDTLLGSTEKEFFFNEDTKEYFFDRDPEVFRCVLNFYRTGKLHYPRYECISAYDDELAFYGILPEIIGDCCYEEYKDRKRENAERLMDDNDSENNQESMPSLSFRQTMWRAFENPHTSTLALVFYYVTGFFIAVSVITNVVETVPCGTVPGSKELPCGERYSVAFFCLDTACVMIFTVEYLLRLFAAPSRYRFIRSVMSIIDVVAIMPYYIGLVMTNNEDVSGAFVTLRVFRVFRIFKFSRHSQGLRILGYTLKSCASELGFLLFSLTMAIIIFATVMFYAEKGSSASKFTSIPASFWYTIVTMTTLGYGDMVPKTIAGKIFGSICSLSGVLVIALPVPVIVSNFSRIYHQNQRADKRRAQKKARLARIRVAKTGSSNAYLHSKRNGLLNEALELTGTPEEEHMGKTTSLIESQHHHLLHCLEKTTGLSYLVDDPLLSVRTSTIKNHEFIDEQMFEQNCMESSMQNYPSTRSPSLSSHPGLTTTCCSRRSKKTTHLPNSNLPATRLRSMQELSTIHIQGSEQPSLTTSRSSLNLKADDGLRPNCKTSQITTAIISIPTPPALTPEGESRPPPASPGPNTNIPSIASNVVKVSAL
Method: For this experiment, a recombinant CHO-K1 cell line stably expressing the human Kv4.3/KChIP2.2 potassium channel was used. The cells used for this experiment were kept in continuous culture under standard conditions (37° C., air supplemented with 7% CO2). The CHO-K1 Kv4.3/KChIP2.2 cells were kept in Iscove s modified DMEM (Dulbecco's Modified Eagle's Medium) medium (IMEM) supplemented with 100 U/ml Penicillin, 100 μg/ml Streptomycin, 7% fetal calf serum (FCS), 2.5 μg/ml amphotericin, 400 μg/ml G418, and 400 μg/ml Zeocin™. Cells were passed every 3-4 days after detachment using a Trypsin solution. The quality of the cultured cells was guaranteed by vitality and contamination tests. The culture of the cells was performed as described in protocol D hereunder.
10 mM stock solutions of the compounds were prepared in DMSO. Solutions of the compounds were prepared by dilution of stock solution in bath solution. If the required stock solution volume was theoretically below 1 μl, bath solutions with higher compound concentration were used for dilution. The maximal DMSO concentration during experiments was 0.1% (v/v).
Activity of the human Kv4.3/KChIP2.2 channel was investigated using the patch clamp technique in its whole cell mode. This means that the current needed for clamping the whole cell expressing the K^+-channel protein to a specific potential was measured. Experiments were performed using a patch clamp set-up. Technical equipment needed for manipulation of the cells was placed on a vibration-isolated table and shielded with a Faraday cage to minimize electrical noise. The amplifier and control system were placed in a rack outside the Faraday cage. The system consisted of an EPC9 or EPC10 patch clamp amplifier (HEKA, Lambrecht, Germany), and the perfusion system DADVC8 (ALA Scientific, New York, USA) controlled by the Pulse software package (HEKA, Lambrecht, Germany) installed on a personal computer. The pipettes used for patch clamping were made of borosilicate glass.
Measurements were performed at room temperature (20-25° C.). In each experiment (i.e. each cell) only one concentration of the compounds was investigated no cumulative dosages were performed. Each cell acted as its own control. […]
Between voltage pulses the cell was clamped to a holding potential of −80 mV (inside). The test protocols are illustrated in FIG. 1 and Table 4. The test protocol illustrated in FIG. 1a was used to characterize the properties of the Kv4.3/KChIP2.2 channel and to check the quality of the individual patch clamp experiment (voltage control). […] Each test protocol consisted of 4 segments.
After the whole cell configuration was established a current-voltage curve (IV activation 1; FIG. 1a and Table 4a) was recorded under constant superfusion with bath solution to check for Kv4.3/KChIP2.2 expression and the quality of the individual patch clamp experiment (voltage control). Subsequently, 14 test pulses (series 1; FIG. 1b and Table 4b) were applied at 0.1 Hz under constant superfusion with bath solution. The protocol was initiated by a voltage jump to 100 mV (400 ms) to achieve full inactivation. Then the Kv4.3/KChIP2.2 channels were transferred to the open state by depolarization to +40 mV for 300 milliseconds (activation). Only cells generating current amplitudes between 1 nA and 50 nA were used for the experimental procedure. No or negligible rundown was observed.
Then, 36 test pulses (series 2) were applied at 0.1 Hz under constant superfusion with the compound dissolved in bath solution. Finally, another current-voltage curve was recorded in the presence of the compounds (IV activation 2).
Three different types of analysis were used: Inhibition at the peak current, inhibition of translocated charge and inhibition 75 ms after activation at +40 mV (sustained current). The peak current/charge/current at 75 ms was determined using the online analysis tool of the HEKA pulse software package. […]

[2] = remaining current measured after application of the compound and relative to the blank, read-out: Kv4.3 charge in %
[3] = remaining peak height measured after application of the compound and relative to the blank, read-out: Kv4.3 peak in %

COc1ccccc1Nc1nc(C)c(C(=O)NCc2ccc(-c3csnn3)cc2)s1 [Compound 161, 2-(2-methoxy-phenylamino)-4-methyl-thiazole-5-carboxylic acid 4-[1,2,3]thiadiazol-4-yl-benzylamide]
remaining activity at 1 µM [1, 2]: 75%
remaining activity at 1 µM [1, 3]: 89%
melting point: 191.6 to 194.5 °C

COc1ccccc1Nc1nc(C)c(C(=O)NCc2ccsc2)s1 [Compound 118, 2-(2-methoxy-phenylamino)-4-methyl-thiazole-5-carboxylic acid (thiophen-3-ylmethyl)-amide]
remaining activity at 1 µM [1, 2]: 85%
remaining activity at 1 µM [1, 3]: 94%
melting point: 153.4 to 154.8 °C

COc1ccccc1Nc1nc(C)c(C(=O)N2CCN(Cc3ccccc3)C[C@@H]2Cc2ccccc2)s1 [Compound 125, ((S)-2,4-dibenzyl-piperazin-1-yl)-[2-(2-methoxy-phenylamino)-4-methyl-thiazol-5-yl]-methanone]
remaining activity at 1 µM [1, 2]: 74%
remaining activity at 1 µM [1, 3]: 95%
melting point: 89.3 to 92.5 °C

COc1ccccc1Nc1nc(C)c(C(=O)OCc2ccccc2)s1 [Compound 123, 2-(2-methoxy-phenylamino)-4-methyl-thiazole-5-carboxylic acid benzyl ester]
remaining activity at 1 µM [1, 2]: 31%
remaining activity at 1 µM [1, 3]: 72%
melting point: 98.4 to 100 °C

COc1ccccc1Nc1nc(C)c(C(=O)NCc2cc(C)ccc2C)s1 [Compound 160, 2-(2-methoxy-phenylamino)-4-methyl-thiazole-5-carboxylic acid 2,5-dimethyl-benzylamide]
remaining activity at 1 µM [1, 2]: 90%
remaining activity at 1 µM [1, 3]: 99%
melting point: 124.1 to 124.9 °C

COc1ccccc1Nc1nc(C)c(C(=O)NCCOCc2ccccc2)s1 [Compound 88, 2-(2-methoxy-phenylamino)-4-methyl-thiazole-5-carboxylic acid (2-benzyloxy-ethyl)-amide]
remaining activity at 1 µM [1, 2]: 85%
remaining activity at 1 µM [1, 3]: 95%
melting point: 44.6 to 47.6 °C

COc1ccccc1Nc1nc(C)c(C(=O)N2CCc3ccccc3C2)s1 [Compound 85, (3,4-dihydro-1H-isoquinolin-2-yl)-[2-(2-methoxy-phenylamino)-4-methyl-thiazol-5-yl]-methanone]
remaining activity at 1 µM [1, 2]: 82%
remaining activity at 1 µM [1, 3]: 96%
melting point: 159.3 to 163.5 °C

COc1ccccc1Nc1nc(C)c(C(=O)NCc2ccc(Oc3ccccc3)cc2)s1 [Compound 102, 2-(2-methoxy-phenylamino)-4-methyl-thiazole-5-carboxylic acid 4-phenoxy-benzylamide]
remaining activity at 1 µM [1, 2]: 76%
remaining activity at 1 µM [1, 3]: 89%
melting point: 159.7 to 162.4 °C

COc1ccccc1Nc1nc(C)c(C(=O)Nc2ccccc2)s1 [Compound 82, 2-(2-methoxy-phenylamino)-4-methyl-thiazole-5-carboxylic acid phenylamide]
remaining activity at 1 µM [1, 2]: 82%
remaining activity at 1 µM [1, 3]: 91%
melting point: 183.5 to 188.1 °C

COc1ccccc1Nc1nc(C)c(C(=O)N2CCC(c3ccccc3OC)CC2)s1 [Compound 165, [2-(2-methoxy-phenylamino)-4-methyl-thiazol-5-yl]-[4-(2-methoxy-phenyl)-piperidin-1-yl]-methanone]
remaining activity at 1 µM [1, 2]: 80%
remaining activity at 1 µM [1, 3]: 100%
melting point: 134.5 to 139 °C

COc1ccccc1Nc1nc(C)c(C(=O)NCc2c(C)cc(Cl)cc2Cl)s1 [Compound 220, 2-(2-methoxy-phenylamino)-4-methyl-thiazole-5-carboxylic acid 2,4-dichloro-6-methyl-benzylamide]
melting point: 142 to 147.7 °C

COc1ccccc1Nc1nc(C)c(C(=O)NCc2cccc(Br)c2)s1 [Compound 147, 2-(2-methoxy-phenylamino)-4-methyl-thiazole-5-carboxylic acid 3-bromo-benzylamide]
melting point: 161.3 to 164.1 °C

COc1cccc(Nc2nc(C)c(C(=O)N[C@H]3CCC[C@@H]3OCc3ccccc3)s2)c1 [Compound 133, 2-(3-methoxy-phenylamino)-4-methyl-thiazole-5-carboxylic acid ((1S,2S)-2-benzyloxycyclopent-1-yl) amide]
melting point: 152.8 to 155.9 °C

COc1ccccc1Nc1nc(C)c(C(=O)NC2CCc3ccccc32)s1 (stereo not drawn) [Compound 164, 2-(2-methoxy-phenylamino)-4-methyl-thiazole-5-carboxylic acid indan-1-ylamide]
melting point: 146.2 to 148 °C

COc1ccccc1Nc1nc(C)c(C(=O)NCC2COc3ccccc3O2)s1 (stereo not drawn) [Compound 217, 2-(2-methoxy-phenylamino)-4-methyl-thiazole-5-carboxylic acid (2,3-dihydro-benzo[1,4]dioxin-2-ylmethyl) amide]
melting point: 138.3 to 158.2 °C

COc1ccc(CNC(=O)c2sc(Nc3ccccc3OC)nc2C)cc1 [Compound 218, 2-(2-methoxy-phenylamino)-4-methyl-thiazole-5-carboxylic acid 4-methoxybenzylamide]
melting point: 143.9 to 144.8 °C

COc1ccccc1Nc1nc(C)c(C(=O)N2CCC(C(=O)c3ccc(F)cc3)CC2)s1 [Compound 175, [4-(4-fluoro-benzoyl)-piperidin-1-yl]-[2-(2-methoxy-phenylamino)-4-methyl-thiazol-5-yl]-methanone]
melting point: 92.6 to 99.6 °C

COc1ccccc1Nc1nc(C)c(C(=O)NCc2ccccc2Br)s1 [Compound 146, 2-(2-methoxy-phenylamino)-4-methyl-thiazole-5-carboxylic acid 2-bromo-benzylamide]
melting point: 159.6 to 164 °C

Cc1nc(Oc2ccccc2)sc1C(=O)N[C@H]1CCC[C@@H]1OCc1ccccc1 [Compound 80, 4-methyl-2-phenoxy-thiazole-5-carboxylicacid ((1S,2S)-2-benzyloxycyclopent-1-yl)amide]
melting point: 93.4 to 95.8 °C

CC[C@@H](NC(=O)c1sc(Nc2ccccc2OC)nc1C)c1ccccc1 [Compound 131, 2-(2-methoxy-phenylamino)-4-methyl-thiazole-5-carboxylic acid ((R)-1-phenyl-propyl)-amide]
melting point: 57.7 to 59.6 °C

Cc1nc(NC(=O)c2ccc(C(N)=O)cc2)sc1C(=O)N[C@H]1CCC[C@@H]1OCc1ccccc1 [Compound 213, N-[5-((1S,2S)-2-benzyloxy-cyclopentylcarbamoyl)-4-methyl-thiazol-2-yl]-terephthalamide]
melting point: 213.8 to 218.9 °C

COc1ccccc1Nc1ncc(C(=O)NCc2ccccc2)[nH]1 [Compound 224, 2-(2-methoxy-phenylamino)-3H-imidazole-4-carboxylic acid benzylamide]
melting point: 212.5 to 213.9 °C
